Reference: PMC5218480 (PLoS ONE, 2017)

Test system: MV-4-11 cells
Assay: Gene expression microarray analysis (Affymetrix PrimeView) and GSEA
Type: cell-based, human
Parameters: RFU PODN (11730768_x_at) / Fold change /veh PODN (11730768_x_at) / RFU LINC00158 (11744669_a_at) / Fold change /veh LINC00158 (11744669_a_at) / RFU DUSP10 (11751237_a_at) / Fold change /veh DUSP10 (11751237_a_at) / RFU ID3 (11757404_x_at) / Fold change /veh ID3 (11757404_x_at) / RFU PLEKHG5 (11737974_s_at) / Fold change /veh PLEKHG5 (11737974_s_at) / RFU LRRC4B (11730491_at) / Fold change /veh LRRC4B (11730491_at) / RFU GIMAP4 (11747438_a_at) / Fold change /veh GIMAP4 (11747438_a_at) / RFU KRT8 (11758183_x_at) / Fold change /veh KRT8 (11758183_x_at) / RFU CNN1 (11734310_a_at) / Fold change /veh CNN1 (11734310_a_at) / RFU VPS37D (11726825_at) / Fold change /veh VPS37D (11726825_at) / RFU C10orf10 (11716522_x_at) / Fold change /veh C10orf10 (11716522_x_at) / RFU KIR2DL2 /// KIR2DL4 /// KIR2DL5A /// KIR2DL5B /// KIR2DS1 /// KIR2DS2 /// KIR2DS3 /// KIR2DS4 /// KIR3DL3 /// KIR3DL3 /// KIR3DS1 (11738374_at) / Fold change /veh KIR2DL2 /// KIR2DL4 /// KIR2DL5A /// KIR2DL5B /// KIR2DS1 /// KIR2DS2 /// KIR2DS3 /// KIR2DS4 /// KIR3DL3 /// KIR3DL3 /// KIR3DS1 (11738374_at) / RFU C1QL1 (11718748_at) / Fold change /veh C1QL1 (11718748_at) / RFU TMPRSS4 (11747572_a_at) / Fold change /veh TMPRSS4 (11747572_a_at) / RFU HAMP (11756126_x_at) / Fold change /veh HAMP (11756126_x_at) / RFU RNFT2 (11725882_a_at) / Fold change /veh RNFT2 (11725882_a_at) / RFU NR4A2 (11747474_a_at) / Fold change /veh NR4A2 (11747474_a_at) / RFU ABCC12 (11746883_a_at) / Fold change /veh ABCC12 (11746883_a_at) / RFU TMEM136 (11760407_x_at) / Fold change /veh TMEM136 (11760407_x_at) / RFU CLDN22 /// WWC2 (11732394_at) / Fold change /veh CLDN22 /// WWC2 (11732394_at) / RFU HLA-DPB1 (11760878_x_at) / Fold change /veh HLA-DPB1 (11760878_x_at) / RFU SPINT1 (11716480_a_at) / Fold change /veh SPINT1 (11716480_a_at) / RFU GAP43 (11754022_s_at) / Fold change /veh GAP43 (11754022_s_at) / RFU A4GNT (11735810_at) / Fold change /veh A4GNT (11735810_at) / RFU PRB3 (11715151_x_at) / Fold change /veh PRB3 (11715151_x_at) / RFU TUBB4B (11761932_at) / Fold change /veh TUBB4B (11761932_at) / RFU CAPN14 (11732068_a_at) / Fold change /veh CAPN14 (11732068_a_at) / RFU TMCC2 (11721928_a_at) / Fold change /veh TMCC2 (11721928_a_at) / RFU IRGQ (11745062_a_at) / Fold change /veh IRGQ (11745062_a_at) / RFU FAM174B (11720279_a_at) / Fold change /veh FAM174B (11720279_a_at) / RFU TMPRSS4 (11748680_a_at) / Fold change /veh TMPRSS4 (11748680_a_at) / RFU FAM212B (11763350_a_at) / Fold change /veh FAM212B (11763350_a_at) / RFU PLEKHG5 (11743358_a_at) / Fold change /veh PLEKHG5 (11743358_a_at) / RFU ZSCAN30 (11745921_a_at) / Fold change /veh ZSCAN30 (11745921_a_at) / RFU CMKLR1 (11741424_a_at) / Fold change /veh CMKLR1 (11741424_a_at) / RFU LOC101060620 /// MAPK8IP1 (11723275_at) / Fold change /veh LOC101060620 /// MAPK8IP1 (11723275_at) / RFU SPTSSB (11747773_x_at) / Fold change /veh SPTSSB (11747773_x_at) / RFU PRSS12 (11739890_at) / Fold change /veh PRSS12 (11739890_at) / RFU BIN1 (11741810_x_at) / Fold change /veh BIN1 (11741810_x_at) / RFU WNT11 (11732464_a_at) / Fold change /veh WNT11 (11732464_a_at) / RFU C10orf10 (11716521_a_at) / Fold change /veh C10orf10 (11716521_a_at) / RFU C5orf56 (11738089_at) / Fold change /veh C5orf56 (11738089_at) / RFU CYB561 (11721691_x_at) / Fold change /veh CYB561 (11721691_x_at) / RFU ANKRD19P (11752326_a_at) / Fold change /veh ANKRD19P (11752326_a_at) / RFU OR2T12 /// OR2T33 /// OR2T8 (11738714_s_at) / Fold change /veh OR2T12 /// OR2T33 /// OR2T8 (11738714_s_at) / RFU VCAN (11748164_a_at) / Fold change /veh VCAN (11748164_a_at) / RFU JSRP1 (11732532_at) / Fold change /veh JSRP1 (11732532_at) / RFU KRTAP10-11 (11738290_x_at) / Fold change /veh KRTAP10-11 (11738290_x_at) / RFU MYO3A (11730013_a_at) / Fold change /veh MYO3A (11730013_a_at) / RFU EBF3 (11725865_a_at) / Fold change /veh EBF3 (11725865_a_at) / RFU CAMK2N1 (11719241_x_at) / Fold change /veh CAMK2N1 (11719241_x_at) / RFU C5orf56 (11738088_a_at) / Fold change /veh C5orf56 (11738088_a_at) / RFU OLFML3 (11715873_a_at) / Fold change /veh OLFML3 (11715873_a_at) / RFU LOC100653217 /// NTM (11731650_a_at) / Fold change /veh LOC100653217 /// NTM (11731650_a_at) / RFU MAPK11 (11762145_a_at) / Fold change /veh MAPK11 (11762145_a_at) / RFU FIZ1 (11724087_x_at) / Fold change /veh FIZ1 (11724087_x_at) / RFU OASL (11726364_x_at) / Fold change /veh OASL (11726364_x_at) / RFU SOX15 (11748057_x_at) / Fold change /veh SOX15 (11748057_x_at) / RFU CD79A (11719716_a_at) / Fold change /veh CD79A (11719716_a_at) / RFU HIST1H1D (11736915_at) / Fold change /veh HIST1H1D (11736915_at) / RFU CASKIN2 (11723855_a_at) / Fold change /veh CASKIN2 (11723855_a_at) / RFU LOC730098 (11760151_x_at) / Fold change /veh LOC730098 (11760151_x_at) / RFU OR4N2 (11742367_at) / Fold change /veh OR4N2 (11742367_at) / RFU PRRT2 (11749266_a_at) / Fold change /veh PRRT2 (11749266_a_at) / RFU SNX32 (11753110_a_at) / Fold change /veh SNX32 (11753110_a_at) / RFU CDHR5 (11726645_a_at) / Fold change /veh CDHR5 (11726645_a_at) / RFU RCAN1 (11760418_a_at) / Fold change /veh RCAN1 (11760418_a_at) / RFU FAM167A (11723789_a_at) / Fold change /veh FAM167A (11723789_a_at) / RFU FAM26E (11764081_at) / Fold change /veh FAM26E (11764081_at) / RFU ISYNA1 (11749810_s_at) / Fold change /veh ISYNA1 (11749810_s_at) / RFU ACY1 (11761880_at) / Fold change /veh ACY1 (11761880_at) / RFU 11764098_at / Fold change /veh 11764098_at / RFU SAMD14 (11745864_x_at) / Fold change /veh SAMD14 (11745864_x_at) / RFU NPB (11741838_a_at) / Fold change /veh NPB (11741838_a_at) / RFU TMPRSS6 (11731388_a_at) / Fold change /veh TMPRSS6 (11731388_a_at) / RFU KRTAP10-2 (11738614_at) / Fold change /veh KRTAP10-2 (11738614_at) / RFU ARHGAP8 /// PRR5-ARHGAP8 (11727945_x_at) / Fold change /veh ARHGAP8 /// PRR5-ARHGAP8 (11727945_x_at) / RFU KRTAP5-7 /// NADSYN1 (11734609_at) / Fold change /veh KRTAP5-7 /// NADSYN1 (11734609_at) / RFU RASL12 (11751679_a_at) / Fold change /veh RASL12 (11751679_a_at) / RFU CDKN2B (11736163_a_at) / Fold change /veh CDKN2B (11736163_a_at) / RFU PRF1 (11729649_at) / Fold change /veh PRF1 (11729649_at) / RFU, ZNF638 /// ZNF638-IT1 / Fold change vs veh, ZNF638 /// ZNF638-IT1 / RFU, PANK3 / Fold change vs veh, PANK3 / RFU, SH3YL1 / Fold change vs veh, SH3YL1 / RFU, ZEB2 / Fold change vs veh, ZEB2 / RFU, NRIP1 / Fold change vs veh, NRIP1 / RFU, PTTG1IP / Fold change vs veh, PTTG1IP / RFU, CAPN2 / Fold change vs veh, CAPN2 / RFU, MED14 / Fold change vs veh, MED14 / RFU, SNORA58 / Fold change vs veh, SNORA58 / RFU, C1orf63 / Fold change vs veh, C1orf63 / RFU, LRRFIP1 / Fold change vs veh, LRRFIP1 / RFU, NDUFAF7 / Fold change vs veh, NDUFAF7 / RFU, SLC12A2 / Fold change vs veh, SLC12A2 / RFU, IBTK / Fold change vs veh, IBTK / RFU, ESF1 / Fold change vs veh, ESF1 / Fold change vs veh, TMEM50B / RFU, TAOK1 / Fold change vs veh, TAOK1 / RFU, ACBD3 / Fold change vs veh, ACBD3 / RFU, TMA16 / Fold change vs veh, TMA16 / RFU, RWDD3 / Fold change vs veh, RWDD3 / RFU, BCAT1 / Fold change vs veh, BCAT1 / RFU, EDEM3 / Fold change vs veh, EDEM3 / RFU, TMEM33 / Fold change vs veh, TMEM33 / RFU, WDR75 / Fold change vs veh, WDR75 / RFU, AHCTF1 / Fold change vs veh, AHCTF1 / RFU, TFRC / Fold change vs veh, TFRC / RFU, ZDHHC17 / Fold change vs veh, ZDHHC17 / RFU, NOM1 / Fold change vs veh, NOM1 / RFU, ARL8B / Fold change vs veh, ARL8B / RFU, ZBTB11 / Fold change vs veh, ZBTB11 / RFU, TAMM41 / Fold change vs veh, TAMM41 / RFU, KIAA1704 /// LOC100996395 / Fold change vs veh, KIAA1704 /// LOC100996395 / RFU, ING1 / Fold change vs veh, ING1 / RFU, TRMT61B / Fold change vs veh, TRMT61B / RFU, FUBP3 / Fold change vs veh, FUBP3 / RFU, TP53 / Fold change vs veh, TP53 / RFU, TNKS2 / Fold change vs veh, TNKS2 / RFU, ZFP14 / Fold change vs veh, ZFP14 / RFU, ACTR2 / Fold change vs veh, ACTR2 / RFU, PPP3R1 / Fold change vs veh, PPP3R1 / RFU, PIK3R1 / Fold change vs veh, PIK3R1 / RFU, HNRNPA1 / Fold change vs veh, HNRNPA1 / RFU, RNF170 / Fold change vs veh, RNF170 / RFU, ZNF28 / Fold change vs veh, ZNF28 / RFU, RNGTT / Fold change vs veh, RNGTT / RFU, OGT / Fold change vs veh, OGT / RFU, BRD1 / Fold change vs veh, BRD1 / RFU, MARS / Fold change vs veh, MARS / RFU, ZNF655 / Fold change vs veh, ZNF655 / RFU, FAHD1 / Fold change vs veh, FAHD1 / RFU, BDP1 / Fold change vs veh, BDP1 / RFU, LRRCC1 / Fold change vs veh, LRRCC1 / RFU, ARID1A / Fold change vs veh, ARID1A / RFU, ZNF146 / Fold change vs veh, ZNF146 / RFU, ZNF330 / Fold change vs veh, ZNF330 / RFU, GPN3 / Fold change vs veh, GPN3 / RFU, C9orf123 / Fold change vs veh, C9orf123 / RFU, N4BP2L2 / Fold change vs veh, N4BP2L2 / RFU, ARFIP1 / Fold change vs veh, ARFIP1 / RFU, FAM179B / Fold change vs veh, FAM179B / RFU, BCL10 / Fold change vs veh, BCL10 / RFU, UHRF1BP1L / Fold change vs veh, UHRF1BP1L / RFU, BET1 / Fold change vs veh, BET1 / RFU, CNOT2 / Fold change vs veh, CNOT2 / RFU, ZNF268 / Fold change vs veh, ZNF268 / Fold change vs veh, ZNF507 / RFU, DGCR2 / Fold change vs veh, DGCR2 / RFU, WDSUB1 / Fold change vs veh, WDSUB1 / Fold change vs veh, HSP90B1 /// MIR3652 / RFU, ADSS / Fold change vs veh, ADSS / RFU, GK / Fold change vs veh, GK / RFU, ZNF148 / Fold change vs veh, ZNF148 / RFU, TAF9 / Fold change vs veh, TAF9 / RFU, SLC1A5 / Fold change vs veh, SLC1A5 / RFU, SLMO2 / Fold change vs veh, SLMO2 / RFU, ABCC4 / Fold change vs veh, ABCC4 / RFU, LOC101060439 /// RAP1B / Fold change vs veh, LOC101060439 /// RAP1B / RFU, RFX7 / Fold change vs veh, RFX7 / RFU, GTPBP10 / Fold change vs veh, GTPBP10 / RFU, CNEP1R1 / Fold change vs veh, CNEP1R1 / RFU, BIVM-ERCC5 /// ERCC5 / Fold change vs veh, BIVM-ERCC5 /// ERCC5 / RFU, ILF3 / Fold change vs veh, ILF3 / RFU 11762660_at / Fold change /veh 11762660_at / RFU VCAN (11757783_s_at) / Fold change /veh VCAN (11757783_s_at) / RFU DDX43 (11728927_at) / Fold change /veh DDX43 (11728927_at) / RFU KRT8 (11758188_x_at) / Fold change /veh KRT8 (11758188_x_at) / RFU NKD1 (11759106_at) / Fold change /veh NKD1 (11759106_at) / RFU SRD5A1 (11742802_a_at) / Fold change /veh SRD5A1 (11742802_a_at) / RFU TPSAB1 /// TPSB2 (11721975_s_at) / Fold change /veh TPSAB1 /// TPSB2 (11721975_s_at) / RFU GSTM3 (11746129_a_at) / Fold change /veh GSTM3 (11746129_a_at) / RFU IL23R (11737362_x_at) / Fold change /veh IL23R (11737362_x_at) / RFU TMEM51 (11727254_a_at) / Fold change /veh TMEM51 (11727254_a_at) / RFU PIWIL2 (11732686_x_at) / Fold change /veh PIWIL2 (11732686_x_at) / RFU ORM1 (11744905_x_at) / Fold change /veh ORM1 (11744905_x_at) / RFU CCDC152 (11743942_at) / Fold change /veh CCDC152 (11743942_at) / RFU ECM1 (11717891_a_at) / Fold change /veh ECM1 (11717891_a_at) / RFU IL23R (11748794_a_at) / Fold change /veh IL23R (11748794_a_at) / RFU TNFAIP8L3 (11732012_x_at) / Fold change /veh TNFAIP8L3 (11732012_x_at) / RFU MBOAT4 (11741988_at) / Fold change /veh MBOAT4 (11741988_at) / RFU 11764193_at / Fold change /veh 11764193_at / RFU TMEM53 (11763286_at) / Fold change /veh TMEM53 (11763286_at) / RFU MAGEB2 (11727129_at) / Fold change /veh MAGEB2 (11727129_at) / RFU TMEM200A (11744735_a_at) / Fold change /veh TMEM200A (11744735_a_at) / RFU CCDC152 (11751479_a_at) / Fold change /veh CCDC152 (11751479_a_at) / RFU FAM211A (11726209_a_at) / Fold change /veh FAM211A (11726209_a_at) / RFU RGS16 (11746705_a_at) / Fold change /veh RGS16 (11746705_a_at) / RFU VCAN (11755009_s_at) / Fold change /veh VCAN (11755009_s_at) / RFU RHOB (11743442_s_at) / Fold change /veh RHOB (11743442_s_at) / RFU RGS16 (11720943_a_at) / Fold change /veh RGS16 (11720943_a_at) / RFU RGS16 (11720944_at) / Fold change /veh RGS16 (11720944_at) / RFU, VPS4B / Fold change vs veh, VPS4B / RFU, CREB1 / Fold change vs veh, CREB1 / RFU, DNAJC13 / Fold change vs veh, DNAJC13 / RFU, GNAQ / Fold change vs veh, GNAQ / RFU, CDK5R1 / Fold change vs veh, CDK5R1 / RFU, ZRANB3 / Fold change vs veh, ZRANB3 / RFU, CUL4A / Fold change vs veh, CUL4A / RFU, CCNY / Fold change vs veh, CCNY / RFU, UFL1 / Fold change vs veh, UFL1 / RFU, COG3 / Fold change vs veh, COG3 / RFU, DIAPH2 / Fold change vs veh, DIAPH2 / RFU, SKA2 / Fold change vs veh, SKA2 / RFU, AFF3 / Fold change vs veh, AFF3 / RFU, LMF1 / Fold change vs veh, LMF1 / RFU, IPO11 / Fold change vs veh, IPO11 / RFU, DFFB / Fold change vs veh, DFFB / RFU, FOXP1 / Fold change vs veh, FOXP1 / RFU, CARD8 / Fold change vs veh, CARD8 / RFU, STRN3 / Fold change vs veh, STRN3 / RFU, ADK / Fold change vs veh, ADK / RFU, RASSF2 / Fold change vs veh, RASSF2 / RFU, WIPF1 / Fold change vs veh, WIPF1 / RFU, LARP1B / Fold change vs veh, LARP1B / RFU, RASA1 / Fold change vs veh, RASA1 / RFU, RB1 / Fold change vs veh, RB1 / RFU, PPFIA1 / Fold change vs veh, PPFIA1 / RFU, MAT2A / Fold change vs veh, MAT2A / RFU, CCT5 / Fold change vs veh, CCT5 / RFU, WDR92 / Fold change vs veh, WDR92 / RFU, CUX1 / Fold change vs veh, CUX1 / RFU, TTC7A / Fold change vs veh, TTC7A / RFU, TMEM135 / Fold change vs veh, TMEM135 / RFU, DEPTOR / Fold change vs veh, DEPTOR / RFU, CPM / Fold change vs veh, CPM / RFU, DNAJB6 / Fold change vs veh, DNAJB6 / RFU, CACNA2D3 / Fold change vs veh, CACNA2D3 / RFU, DTX4 / Fold change vs veh, DTX4 / RFU, TFCP2 / Fold change vs veh, TFCP2 / RFU, GMCL1 /// GMCL1P1 / Fold change vs veh, GMCL1 /// GMCL1P1 / RFU, AEBP2 / Fold change vs veh, AEBP2 / RFU, SNHG1 /// SNORD22 /// SNORD25 /// SNORD26 /// SNORD27 /// SNORD28 /// SNORD29 /// SNORD31 / Fold change vs veh, SNHG1 /// SNORD22 /// SNORD25 /// SNORD26 /// SNORD27 /// SNORD28 /// SNORD29 /// SNORD31 / Fold change (Aza/veh), C12orf56 (ProbeSet 11735607_a_at) / Fold change (ACY-1035/veh), C12orf56 (ProbeSet 11735607_a_at) / Fold change (Aza/veh), FGFR1OP (ProbeSet 11751329_s_at) / Fold change (ACY-1035/veh), FGFR1OP (ProbeSet 11751329_s_at) / Fold change (Aza/veh), VPS36 (ProbeSet 11739960_a_at) / Fold change (ACY-1035/veh), VPS36 (ProbeSet 11739960_a_at) / RFU SYPL1 (11715823_x_at) / Fold change /veh SYPL1 (11715823_x_at) / RFU IGFBP7 (11715501_s_at) / Fold change /veh IGFBP7 (11715501_s_at) / RFU REEP3 (11722064_at) / Fold change /veh REEP3 (11722064_at) / RFU IGLL1 (11728026_x_at) / Fold change /veh IGLL1 (11728026_x_at): dose or concentration left out as unconfirmed
Settings: MV-4-11 cells, 48 hours

Nc1ccc(-c2cccs2)cc1NC(=O)c1ccc2c(c1)cc(C1CC1)n2CCN1CCOCC1 [ACY-1035]
RFU MAPK11 (11762145_a_at): 21.16 RFU
